Several values for one entry are separate records, joined by “and”; a condition that tells them apart may be missing. Equal values may be shown once.
Tests used:
[1] = xn = mol fraction of the nth substance listed; details: 101 kPa, Liquid, x2 = 0; for viscosity: Capillary tube (Ostwald / Ubbelohde) method; for mass density: Pycnometric method
[2] = Liquid; for mass density: Pycnometric method; for viscosity: Capillary tube (Ostwald / Ubbelohde) method
[3] = wn = mass fraction of the nth substance listed; details: 101 kPa, Liquid, w1 = 0.2; for mass density: Pycnometric method; for viscosity: Capillary tube (Ostwald / Ubbelohde) method

O [water] + Cc1ccncc1
[1]
Details	mass density [kg/m3]	viscosity [mPa·s]
298.15 K	–	0.8903
303.15 K	–	0.7973
308.15 K	–	0.719
313.15 K	–	0.6526
318.15 K	–	0.5972
323.15 K	988	0.5468
328.15 K	985.7	0.5042
333.15 K	983.2	0.4669
338.15 K	980.6	0.4341

Cc1ccncc1 [4-methylpyridine]
[2]
Details	mass density, 101 kPa	mass density, 101.33 kPa [kg/m3]	viscosity, 101 kPa [mPa·s]	viscosity, 101.33 kPa [mPa·s]
283.15 K	958.2 kg/m3	958.2	–	–
293.15 K	955.1 kg/m3	955.1	–	–
298.15 K	955.4 kg/m3 and 951.1 kg/m3	951.1	–	0.8723
303.15 K	951.1 kg/m3	–	0.8175	–
308.15 K	941.3 kg/m3	–	0.7774	–
313.15 K	936.6 kg/m3	–	0.7368	–
318.15 K	932.1 kg/m3	–	0.6855	–
323.15 K	927.7 kg/m3	–	0.6505	–
328.15 K	923.2 kg/m3	–	0.5905	–
333.15 K	918.5 kg/m3	–	0.5329	–
338.15 K	914 kg/m3	–	0.4815	–

O [water]
[2], 101 kPa
Details	mass density [kg/m3]	viscosity [mPa·s]
298.15 K	–	0.8903
303.15 K	–	0.7973
308.15 K	–	0.719
313.15 K	–	0.6526
318.15 K	–	0.5972
323.15 K	988	0.5468
328.15 K	985.7	0.5042
333.15 K	983.2	0.4669
338.15 K	980.6	0.4341

O=S(=O)(O)O [sulfuric acid] + O
[3]
Details	mass density [kg/m3]	viscosity [mPa·s]
283.15 K	1145	–
293.15 K	1139.6	1.543
298.15 K	1136.4	–
303.15 K	1133.7	1.21
313.15 K	1127.8	0.987
323.15 K	1121.9	0.824
333.15 K	1115.7	0.716
343.15 K	1108.9	0.638

— the NIST ThermoML archive (doi:10.1021/je8008182)
